{"source": "patent US9688625B2", "about": "“Amorphous form of a thiocolchicine derivative” (priority 2014, dated 2017)", "assay_type_in_all_cases": "physicochemical", "key": {"[1]": {"experiment": "Chemical stability on storage, analyses by HPLC", "conditions": "for variation in the chemical composition: after one month at 40±2° C./75±5% relative humidity; for time for which chemically stable (none impurity departed from its initial value): HPLC", "protocol": "The analyses were performed by HPLC."}, "[2]": {"experiment": "Solubility (comparison of solid forms)", "conditions": "compared with other crystalline forms"}, "[3]": {"experiment": "Physical stability on storage (features of FIG. 1-4 maintained)", "conditions": "40±2° C./75±5 relative humidity", "protocol": "The amorphous form of compound (I) has also been found physically stable at 25±2° C./60±5% relative humidity for at least three years and at 40±2° C./75±5 relative humidity for at least 6 months, as it maintained the characteristics features reported in FIG. 1-4."}}}
{"smiles": "COc1cc2c(c(OC)c1OC)-c1ccc(SC)c(=O)cc1[C@@H](NC(=O)CCNC(=O)N[C@H]1CCc3cc(OC)c(OC)c(OC)c3-c3ccc(SC)c(=O)cc31)CC2", "note": "(single isomer, unassigned) [crystalline IDN 5404 obtained in Example 2] [reference compound]", "values": [{"measurement": "variation in the chemical composition", "setting": "[1]", "result": 7, "unit": "%"}]}
{"smiles": "COc1cc2c(c(OC)c1OC)-c1ccc(SC)c(=O)cc1[C@@H](NC(=O)CCNC(=O)N[C@H]1CCc3cc(OC)c(OC)c(OC)c3-c3ccc(SC)c(=O)cc31)CC2", "note": "(single isomer, unassigned) [crystalline IDN 5404 obtained in Example 3] [reference compound]", "values": [{"measurement": "variation in the chemical composition", "setting": "[1]", "result": 4.1, "unit": "%"}]}
{"smiles": "COc1cc2c(c(OC)c1OC)-c1ccc(SC)c(=O)cc1[C@@H](NC(=O)CCNC(=O)N[C@H]1CCc3cc(OC)c(OC)c(OC)c3-c3ccc(SC)c(=O)cc31)CC2", "note": "[amorphous form of compound (I), IDN 5404]", "values": [{"measurement": "solubility in water", "setting": "[2]", "result": "more soluble in water than other crystalline forms"}, {"measurement": "time for which physically stable (maintained features of FIG. 1-4)", "setting": "[3]", "result": "at least 6 months"}, {"measurement": "time for which chemically stable (none impurity departed from its initial value)", "setting": "[1]; 25±2° C./60±5% relative humidity", "result": "at least three"}, {"measurement": "time for which chemically stable (none impurity departed from its initial value)", "setting": "[1]; 40±2° C./75±5% relative humidity", "result": "at least 6 moths"}]}
